Experiment in all cases: in vitro susceptibility, MIC by mini broth dilution
What all share (type): cell-based
For orientation: Broth dilution looks for growth in wells or tubes with falling amounts of substance.

For experiment [1], the system named is Staphylococcus aureus CVCC26003. The note with it: strain CVCC26003. The protocol:
(§1) in vitro tests of susceptibility of the compounds according to the present disclosure against bacterial strains commonly used in laboratories. In accordance with the Performance Standards for Antimicrobial Disk Susceptibility Tests: Approved Standard published by the US National Committee for Clinical Laboratory Standards, the antibacterial activities of compounds prepared according to examples 5 to 187 were tested. The MICs (minimum inhibitory concentration) of the medicaments prepared according to the examples on the following bacterial strains were measured through mini broth dilution technique. Staphylococcus aureus CVCC26003, Streptococcus equines CVCC556. Actinobacillus pleuropneumoniae CVCC262, Haemophilus parasuis, and Pasteurella multocida CVCC399, which were purchased from the Control Institute of Veterinary Bioproducts and Pharmaceuticals, China. 4.1.1 Culture Medium for Staphylococcus aureus CVCC26003 Liquid culture medium: CAMHB. […] Solid culture medium: NINA prepared according to the specification of the final product. The strains were taken out of a refrigerator at −20° C. to be revived, and were spreaded by streaking on the solid culture medium with an inoculating loop. The inoculated culture medium was cultured at 35° C. in a constant temperature incubator for 20 h. […] were selected from a well-grown culture plate and streaked on the solid culture medium. The inoculated culture medium was cultured at 35° C. in the constant temperature incubator for 20 h. […] A 96-well plate was used, and 100 μl of DMSO was added into each of wells 2 to 11, and 200 μl of ready-prepared medicament solution was added into the 1st well, 100 μl of the medicament solution was extracted from the 1st well and added into the 2nd well. Double dilution was performed until the 11th well, thereby forming 11 gradients. In this case, compound of parent plate was prepared. 3 μl of double diluted medicament solution was extracted with a 12-channel pipettor and added into wells 1-11 of a new disposable 96-well culture plate. The 12th well thereof is a control well. For each medicament, there are two adjacent rows which are parallel. The transferred compound plate was reserved for later use. […] The dilution ratio was recorded, and the bacterial liquid for the tests was diluted according to the recorded dilution ratio. Subsequently, the bacterial suspension and the liquid culture medium were diluted in the proportion of 1:200. The diluted solution was reserved for later use.

Experiment [2] relates to Actinobacillus pleuropneumoniae CVCC262. The note with it: strain CVCC262. The procedure: as §1, with “China. 4.1.2” for “China. 4.1.1”, “Culture Media” for “Culture Medium”, “for the Rest Four Bacterial Strains.” for “for Staphylococcus aureus CVCC26003”, “medium:” for “medium: CAMHB.”, “medium: […]” for “medium: NINA prepared according to the specification of the final product.”

The test system of a further experiment is Haemophilus parasuis. The procedure: as §1, with “China. 4.1.2” for “China. 4.1.1”, “Culture Media” for “Culture Medium”, “for the Rest Four Bacterial Strains.” for “for Staphylococcus aureus CVCC26003”, “medium:” for “medium: CAMHB.”, “medium: […]” for “medium: NINA prepared according to the specification of the final product.”
The subject of experiment [3] is Pasteurella multocida CVCC399. The following applies: strain CVCC399. The procedure:
as §1, with “China. 4.1.2” for “China. 4.1.1”, “Culture Media” for “Culture Medium”, “for the Rest Four Bacterial Strains.” for “for Staphylococcus aureus CVCC26003”, “medium:” for “medium: CAMHB.”, “medium: […]” for “medium: NINA prepared according to the specification of the final product.”

Experiment [4] deals with Streptococcus equines CVCC556. The note with it: strain CVCC556. The protocol: as §1, with “China. 4.1.2” for “China. 4.1.1”, “Culture Media” for “Culture Medium”, “for the Rest Four Bacterial Strains.” for “for Staphylococcus aureus CVCC26003”, “medium:” for “medium: CAMHB.”, “medium: […]” for “medium: NINA prepared according to the specification of the final product.”

As for `CC[C@H]1OC(=O)[C@H](C)[C@@H](O[C@H]2C[C@@](C)(OC)[C@](O)(CNCc3cccnc3)[C@H](C)O2)[C@H](C)[C@@H](O[C@@H]2O[C@H](C)C[C@H](N(C)C)[C@H]2O)[C@](C)(O)C[C@@H](C)NC[C@H](C)[C@@H](O)[C@]1(C)O` [syzx-21, (2R,3S,4R,5S,8R,10R,11R,12S,13S,14R)-13-[(2,6-dideoxy-3-C-methyl-3-O-methyl-4-C-[(3-pyridinylmethylamino)methyl]-α-L-ribopyranosyl)oxy]-2-ethyl-3,4,10-trihydroxy-3,5,8,10,12,14-hexamethyl-11-[[3,4,6-trideoxy-3-(dimethylamino)-β-D-xylo-hexopyranosy]oxy]-1-oxa-7-azacyclopentadecan-15-one], the “MIC values, Staphylococcus aureus CVCC26003” value in experiment [1] is 0.5 ug/mi. Moreover, in experiment [2], the “MIC values, Actinobacillus pleuropneumoniae CVCC262” value was found to be 32 ug/mi. Moreover, the “MIC values, Haemophilus parasuis” value with Haemophilus parasuis is “≦0.25 ug/mi”. Moreover, the “MIC values, Pasteurella multocida CVCC399” value in experiment [3] is “≦0.25 ug/mi”. The “MIC values, Streptococcus equines CVCC556” value in experiment [4] was “≦0.25 ug/mi”.

Take `CC[C@H]1OC(=O)[C@H](C)[C@@H](O[C@H]2C[C@@](C)(OC)[C@](O)(CNCCc3ccncc3)[C@H](C)O2)[C@H](C)[C@@H](O[C@@H]2O[C@H](C)C[C@H](N(C)C)[C@H]2O)[C@](C)(O)C[C@@H](C)NC[C@H](C)[C@@H](O)[C@]1(C)O` [syzx-91, (2R,3S,4R,5S,8R,10R,11R,12S,13S,14R)-13-[(2,6-dideoxy-3-C-methyl-3-O-methyl-4-C-[(2-pyridin-4-yl-ethylamino)-methyl]-α-L-ribopyranosyl)oxy]-2-ethyl-3,4,10-trihydroxy-3,5,8,10,12,14-hexamethyl-11-[[3,4,6-trideoxy-3-(dimethylamino)-β-D-xylo-hexopyranosy]oxy]-1-oxa-7-azacyclopentadecan-15-one]: the “MIC values, Staphylococcus aureus CVCC26003” value in experiment [1] came out at 4 ug/mi. Besides, the “MIC values, Actinobacillus pleuropneumoniae CVCC262” value in experiment [2] was determined as 2 ug/mi. Also, in the experiment with Haemophilus parasuis, the “MIC values, Haemophilus parasuis” value worked out at 2 ug/mi. Moreover, the “MIC values, Pasteurella multocida CVCC399” value in experiment [3] was found to be 2 ug/mi. For the same molecule, the “MIC values, Streptococcus equines CVCC556” value in experiment [4] is 1 ug/mi.

As for `CCCN1C[C@H](C)[C@@H](O)[C@](C)(O)[C@@H](CC)OC(=O)[C@H](C)[C@@H](O[C@H]2C[C@@](C)(OC)[C@](O)(CNCC3(C)CC(N)CC(C)(C)C3)[C@H](C)O2)[C@H](C)[C@@H](O[C@@H]2O[C@H](C)C[C@H](N(C)C)[C@H]2O)[C@](C)(O)C[C@H]1C` (some centres unmarked) [syzx-106], in experiment [1], the “MIC values, Staphylococcus aureus CVCC26003” value is reported as 2 ug/mi. The “MIC values, Actinobacillus pleuropneumoniae CVCC262” value in experiment [2] came out at 0.5 ug/mi. Further, the “MIC values, Haemophilus parasuis” value in the experiment with Haemophilus parasuis is listed as 0.5 ug/mi. For the same molecule, the “MIC values, Pasteurella multocida CVCC399” value in experiment [3] is on record as 2 ug/mi. Also, the “MIC values, Streptococcus equines CVCC556” value in experiment [4] was 0.25 ug/mi.

With `CCCN1C[C@H](C)[C@@H](O)[C@](C)(O)[C@@H](CC)OC(=O)[C@H](C)[C@@H](O[C@H]2C[C@@](C)(OC)[C@](O)(CNc3cc(C(F)(F)F)cc(C(F)(F)F)c3)[C@H](C)O2)[C@H](C)[C@@H](O[C@@H]2O[C@H](C)C[C@H](N(C)C)[C@H]2O)[C@](C)(O)C[C@H]1C` [syzx-230], in experiment [1], the “MIC values, Staphylococcus aureus CVCC26003” value is on record as 4 ug/mi. For the same molecule, the “MIC values, Actinobacillus pleuropneumoniae CVCC262” value in experiment [2] was 2 ug/mi. For the same molecule, the “MIC values, Haemophilus parasuis” value in the experiment with Haemophilus parasuis is recorded as 2 ug/mi. Also, the “MIC values, Pasteurella multocida CVCC399” value in experiment [3] turned out to be 8 ug/mi. Besides, the “MIC values, Streptococcus equines CVCC556” value in experiment [4] amounted to 0.25 ug/mi.

On to `CC[C@H]1OC(=O)[C@H](C)[C@H](O[C@H]2C[C@@](C)(OC)[C@](O)(CNCCc3ccncc3)[C@H](C)O2)[C@H](C)[C@@H](O[C@@H]2O[C@H](C)C[C@H](N(C)C)[C@H]2O)[C@](C)(O)C[C@@H](C)NC[C@H](C)[C@@H](O)[C@]1(C)O` [syzx-64], for which, in experiment [1], the “MIC values, Staphylococcus aureus CVCC26003” value is “≦0.25 ug/mi”. For the same molecule, the “MIC values, Actinobacillus pleuropneumoniae CVCC262” value in experiment [2] stood at 0.5 ug/mi. The “MIC values, Haemophilus parasuis” value in the experiment on Haemophilus parasuis was “≦0.25 ug/mi”. The “MIC values, Pasteurella multocida CVCC399” value in experiment [3] amounted to 0.25 ug/mi. Also, the “MIC values, Streptococcus equines CVCC556” value in experiment [4] is 0.25 ug/mi.

On to `CCCN1C[C@H](C)[C@@H](O)[C@](C)(O)[C@@H](CC)OC(=O)[C@H](C)[C@@H](O[C@H]2C[C@@](C)(OC)[C@](O)(CNCC(C)C)[C@H](C)O2)[C@H](C)[C@@H](O[C@@H]2O[C@H](C)C[C@H](N(C)C)[C@H]2O)[C@](C)(O)C[C@H]1C` [syzx-112], for which the “MIC values, Staphylococcus aureus CVCC26003” value in experiment [1] is recorded as 0.25 ug/mi. The “MIC values, Actinobacillus pleuropneumoniae CVCC262” value in experiment [2] turned out to be 0.25 ug/mi. For the same molecule, the “MIC values, Haemophilus parasuis” value against Haemophilus parasuis is given as 0.25 ug/mi. Besides, the “MIC values, Pasteurella multocida CVCC399” value in experiment [3] is on record as 0.5 ug/mi. For the same molecule, the “MIC values, Streptococcus equines CVCC556” value in experiment [4] came out at 0.25 ug/mi.

On to `CCCN1C[C@H](C)[C@@H](O)[C@](C)(O)[C@@H](CC)OC(=O)[C@H](C)[C@@H](O[C@H]2C[C@@](C)(OC)[C@](O)(CNC(C)CC(=O)O)[C@H](C)O2)[C@H](C)[C@@H](O[C@@H]2O[C@H](C)C[C@H](N(C)C)[C@H]2O)[C@](C)(O)C[C@H]1C` (some centres unmarked) [syzx-150], for which the “MIC values, Staphylococcus aureus CVCC26003” value in experiment [1] is recorded as 0.5 ug/mi. The “MIC values, Actinobacillus pleuropneumoniae CVCC262” value in experiment [2] is 1 ug/mi. The “MIC values, Haemophilus parasuis” value in the experiment with Haemophilus parasuis is reported as 0.5 ug/mi. Besides, the “MIC values, Pasteurella multocida CVCC399” value in experiment [3] came to 2 ug/mi. The “MIC values, Streptococcus equines CVCC556” value in experiment [4] is recorded as 0.25 ug/mi.

In the case of `CCCN1C[C@H](C)[C@@H](O)[C@](C)(O)[C@@H](CC)OC(=O)[C@H](C)[C@@H](O[C@H]2C[C@@](C)(OC)[C@](O)(Cn3ccnc3C)[C@H](C)O2)[C@H](C)[C@@H](O[C@@H]2O[C@H](C)C[C@H](N(C)C)[C@H]2O)[C@](C)(O)C[C@H]1C` [syzx-238], in experiment [1], the “MIC values, Staphylococcus aureus CVCC26003” value came to 1 ug/mi. Further, the “MIC values, Actinobacillus pleuropneumoniae CVCC262” value in experiment [2] came to 1 ug/mi. In addition, the “MIC values, Haemophilus parasuis” value against Haemophilus parasuis is 1 ug/mi. Further, the “MIC values, Pasteurella multocida CVCC399” value in experiment [3] worked out at 4 ug/mi. Besides, in experiment [4], the “MIC values, Streptococcus equines CVCC556” value was found to be 0.25 ug/mi.

As to `CCCN1C[C@H](C)[C@@H](O)[C@](C)(O)[C@@H](CC)OC(=O)[C@H](C)[C@@H](O[C@H]2C[C@@](C)(OC)[C@](O)(CN(C)CCO)[C@H](C)O2)[C@H](C)[C@@H](O[C@@H]2O[C@H](C)C[C@H](N(C)C)[C@H]2O)[C@](C)(O)C[C@H]1C` [syzx-126], the “MIC values, Staphylococcus aureus CVCC26003” value in experiment [1] was found to be 4 ug/mi. Also, the “MIC values, Actinobacillus pleuropneumoniae CVCC262” value in experiment [2] is recorded as 4 ug/mi. Besides, the “MIC values, Haemophilus parasuis” value in the experiment on Haemophilus parasuis is 4 ug/mi. Besides, the “MIC values, Pasteurella multocida CVCC399” value in experiment [3] is listed as 2 ug/mi. In addition, the “MIC values, Streptococcus equines CVCC556” value in experiment [4] was 0.5 ug/mi.

For `CCCCN(C)C[C@]1(O)[C@H](C)O[C@@H](O[C@H]2[C@H](C)[C@@H](O[C@@H]3O[C@H](C)C[C@H](N(C)C)[C@H]3O)[C@](C)(O)C[C@@H](C)N(CCC)C[C@H](C)[C@@H](O)[C@](C)(O)[C@@H](CC)OC(=O)[C@@H]2C)C[C@@]1(C)OC` [syzx-198], the “MIC values, Staphylococcus aureus CVCC26003” value in experiment [1] was found to be 1 ug/mi. The “MIC values, Actinobacillus pleuropneumoniae CVCC262” value in experiment [2] is recorded as 0.5 ug/mi. The “MIC values, Haemophilus parasuis” value in the experiment on Haemophilus parasuis was determined as 0.5 ug/mi. In experiment [3], the “MIC values, Pasteurella multocida CVCC399” value is on record as 4 ug/mi. The “MIC values, Streptococcus equines CVCC556” value in experiment [4] is recorded as 0.5 ug/mi.

The values above are taken from patent US9765105B2, “Macrolide compound” (Pulike Biological Engineering, Inc., priority 2013, dated 2017).
